Laboratory results published in PubChem BioAssay (NCI).
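96-well plates; 48 h exposure; 5 concentrations. Endpoints by linear interpolation between flanking doses. Not reached: highest tested concentration assigned. TGI is the concentration that stops growth completely.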

How the values were obtained:
Test in all cases: NCI-60 cell line screen, 48 h
SF-539 CNS = tested on: SF-539 CNS
RXF 393 renal = tested on: RXF 393 renal
COLO 205 colon = tested on: COLO 205 colon
HL-60(TB) leukemia = tested on: HL-60(TB) leukemia
TK-10 renal = tested on: TK-10 renal
A549 NSCLC = tested on: A549 NSCLC
SR leukemia = tested on: SR leukemia
SK-MEL-5 melanoma = tested on: SK-MEL-5 melanoma
DLD-1 colon = tested on: DLD-1 colon
ACHN renal = tested on: ACHN renal
KM12 colon = tested on: KM12 colon
NCI-H226 lung = tested on: NCI-H226 lung
NCI-H460 lung = tested on: NCI-H460 lung
EKVX NSCLC = tested on: EKVX NSCLC
SNB-19 CNS = tested on: SNB-19 CNS
XF 498 CNS = tested on: XF 498 CNS
CCRF-CEM leukemia = tested on: CCRF-CEM leukemia
SW-620 colon = tested on: SW-620 colon
IGROV1 ovarian = tested on: IGROV1 ovarian
SF-295 CNS = tested on: SF-295 CNS
SK-MEL-28 melanoma = tested on: SK-MEL-28 melanoma
OVCAR-3 ovarian = tested on: OVCAR-3 ovarian
K-562 leukemia = tested on: K-562 leukemia
M14 melanoma = tested on: M14 melanoma
NCI-H23 lung = tested on: NCI-H23 lung
HT29 colon = tested on: HT29 colon
SK-OV-3 ovarian = tested on: SK-OV-3 ovarian
786-0 renal = tested on: 786-0 renal
HOP-92 NSCLC = tested on: HOP-92 NSCLC
RPMI-8226 leukemia = tested on: RPMI-8226 leukemia
M19-MEL melanoma = tested on: M19-MEL melanoma
OVCAR-8 ovarian = tested on: OVCAR-8 ovarian
U251 CNS = tested on: U251 CNS
HCT-15 colon = tested on: HCT-15 colon
UO-31 renal = tested on: UO-31 renal
MOLT-4 leukemia = tested on: MOLT-4 leukemia
SK-MEL-2 melanoma = tested on: SK-MEL-2 melanoma
UACC-257 melanoma = tested on: UACC-257 melanoma
SN12C renal = tested on: SN12C renal
HCC-2998 colon = tested on: HCC-2998 colon
OVCAR-5 ovarian = tested on: OVCAR-5 ovarian
MALME-3M melanoma = tested on: MALME-3M melanoma
DMS 114 small cell lung = tested on: DMS 114 small cell lung
SF-268 CNS = tested on: SF-268 CNS
HCT-116 colon = tested on: HCT-116 colon
LXFL 529 NSCLC = tested on: LXFL 529 NSCLC
SNB-78 CNS = tested on: SNB-78 CNS
HOP-62 NSCLC = tested on: HOP-62 NSCLC
KM20L2 colon = tested on: KM20L2 colon
NCI-H522 lung = tested on: NCI-H522 lung
A498 renal = tested on: A498 renal
CAKI-1 renal = tested on: CAKI-1 renal
OVCAR-4 ovarian = tested on: OVCAR-4 ovarian
SNB-75 CNS = tested on: SNB-75 CNS
UACC-62 melanoma = tested on: UACC-62 melanoma
HOP-18 NSCLC = tested on: HOP-18 NSCLC
DMS 273 small cell lung = tested on: DMS 273 small cell lung
LOX IMVI melanoma = tested on: LOX IMVI melanoma

## CCOC(=O)C(Cc1c(C=O)[nH]c2ccccc12)(NC(=O)c1ccccc1)C(=O)OCC
SF-539 CNS
  TGI: 30.3 µM
RXF 393 renal
  TGI: 26 µM
COLO 205 colon
  TGI: 34.7 µM
HL-60(TB) leukemia
  TGI: > 100 µM
TK-10 renal
  TGI: 69.9 µM
A549 NSCLC
  TGI: 42.2 µM
SR leukemia
  TGI: > 100 µM
SK-MEL-5 melanoma
  TGI: 24.5 µM
DLD-1 colon
  TGI: 25 µM
ACHN renal
  TGI: 39.3 µM
KM12 colon
  TGI: 26.9 µM
NCI-H226 lung
  TGI: 45.9 µM
NCI-H460 lung
  TGI: 59.7 µM
EKVX NSCLC
  TGI: 42.7 µM
SNB-19 CNS
  TGI: 18.4 µM
XF 498 CNS
  TGI: 32.1 µM
CCRF-CEM leukemia
  TGI: 39 µM
SW-620 colon
  TGI: 32.1 µM
IGROV1 ovarian
  TGI: 43.7 µM
SF-295 CNS
  TGI: 33 µM
SK-MEL-28 melanoma
  TGI: 34.2 µM
OVCAR-3 ovarian
  TGI: 40.3 µM
K-562 leukemia
  TGI: 45.2 µM
M14 melanoma
  TGI: 33.7 µM
NCI-H23 lung
  TGI: 37.1 µM
HT29 colon
  TGI: 37.2 µM
SK-OV-3 ovarian
  TGI: 79.8 µM
786-0 renal
  TGI: 34.7 µM
HOP-92 NSCLC
  TGI: 31.3 µM
RPMI-8226 leukemia
  TGI: > 100 µM
M19-MEL melanoma
  TGI: 31.8 µM
OVCAR-8 ovarian
  TGI: 65.7 µM
U251 CNS
  TGI: 25.5 µM
HCT-15 colon
  TGI: 29.8 µM
UO-31 renal
  TGI: 62.4 µM
MOLT-4 leukemia
  TGI: 37.1 µM
SK-MEL-2 melanoma
  TGI: 32.4 µM
UACC-257 melanoma
  TGI: 39.2 µM
SN12C renal
  TGI: 26.6 µM
HCC-2998 colon
  TGI: 24.6 µM
OVCAR-5 ovarian
  TGI: 35.3 µM
MALME-3M melanoma
  TGI: 33.9 µM
DMS 114 small cell lung
  TGI: 39 µM
SF-268 CNS
  TGI: 39.5 µM

## Nc1cc(C(=O)NC2C3CC4CC(C3)CC2C4)[nH]c(=S)n1 (stereo not drawn)
SF-539 CNS
  TGI: > 100 µM
RXF 393 renal
  TGI: > 100 µM
HL-60(TB) leukemia
  TGI: > 100 µM
A549 NSCLC
  TGI: > 100 µM
SR leukemia
  TGI: > 100 µM
SK-MEL-5 melanoma
  TGI: > 100 µM
DLD-1 colon
  TGI: > 100 µM
NCI-H226 lung
  TGI: > 100 µM
NCI-H460 lung
  TGI: > 100 µM
EKVX NSCLC
  TGI: > 100 µM
SNB-19 CNS
  TGI: > 100 µM
XF 498 CNS
  TGI: > 100 µM
CCRF-CEM leukemia
  TGI: > 100 µM
SW-620 colon
  TGI: > 100 µM
IGROV1 ovarian
  TGI: > 100 µM
HCT-116 colon
  TGI: > 100 µM
SK-MEL-28 melanoma
  TGI: > 100 µM
OVCAR-3 ovarian
  TGI: > 100 µM
K-562 leukemia
  TGI: > 100 µM
LXFL 529 NSCLC
  TGI: > 100 µM
M14 melanoma
  TGI: > 100 µM
NCI-H23 lung
  TGI: > 100 µM
HT29 colon
  TGI: > 100 µM
SK-OV-3 ovarian
  TGI: > 100 µM
786-0 renal
  TGI: > 100 µM
HOP-92 NSCLC
  TGI: > 100 µM
SNB-78 CNS
  TGI: > 100 µM
HOP-62 NSCLC
  TGI: > 100 µM
KM20L2 colon
  TGI: > 100 µM
NCI-H522 lung
  TGI: > 100 µM
M19-MEL melanoma
  TGI: > 100 µM
OVCAR-8 ovarian
  TGI: > 100 µM
U251 CNS
  TGI: > 100 µM
HCT-15 colon
  TGI: > 100 µM
UO-31 renal
  TGI: > 100 µM
MOLT-4 leukemia
  TGI: > 100 µM
A498 renal
  TGI: > 100 µM
CAKI-1 renal
  TGI: > 100 µM
UACC-257 melanoma
  TGI: > 100 µM
SN12C renal
  TGI: > 100 µM
HCC-2998 colon
  TGI: > 100 µM
OVCAR-4 ovarian
  TGI: > 100 µM
MALME-3M melanoma
  TGI: > 100 µM
SNB-75 CNS
  TGI: > 100 µM
SF-268 CNS
  TGI: > 100 µM

## COP(=O)(CC(=O)C1OC(C)(C)OC1C(O)COCc1ccccc1)OC (stereo not drawn)
SF-539 CNS
  TGI: > 100 µM
RXF 393 renal
  TGI: > 100 µM
UACC-62 melanoma
  TGI: > 100 µM
COLO 205 colon
  TGI: > 100 µM
HL-60(TB) leukemia
  TGI: > 100 µM
TK-10 renal
  TGI: > 100 µM
A549 NSCLC
  TGI: > 100 µM
SR leukemia
  TGI: > 100 µM
HOP-18 NSCLC
  TGI: > 100 µM
SK-MEL-5 melanoma
  TGI: > 100 µM
DLD-1 colon
  TGI: > 100 µM
ACHN renal
  TGI: > 100 µM
KM12 colon
  TGI: > 100 µM
NCI-H226 lung
  TGI: > 100 µM
NCI-H460 lung
  TGI: > 100 µM
EKVX NSCLC
  TGI: > 100 µM
CCRF-CEM leukemia
  TGI: > 100 µM
SW-620 colon
  TGI: > 100 µM
IGROV1 ovarian
  TGI: > 100 µM
SF-295 CNS
  TGI: > 100 µM
HCT-116 colon
  TGI: > 100 µM
SK-MEL-28 melanoma
  TGI: > 100 µM
OVCAR-3 ovarian
  TGI: > 100 µM
K-562 leukemia
  TGI: > 100 µM
LXFL 529 NSCLC
  TGI: > 100 µM
M14 melanoma
  TGI: > 100 µM
NCI-H23 lung
  TGI: > 100 µM
HT29 colon
  TGI: > 100 µM
DMS 273 small cell lung
  TGI: > 100 µM
786-0 renal
  TGI: > 100 µM
HOP-92 NSCLC
  TGI: > 100 µM
SNB-78 CNS
  TGI: > 100 µM
HOP-62 NSCLC
  TGI: > 100 µM
KM20L2 colon
  TGI: > 100 µM
RPMI-8226 leukemia
  TGI: > 100 µM
M19-MEL melanoma
  TGI: > 100 µM
LOX IMVI melanoma
  TGI: > 100 µM
OVCAR-8 ovarian
  TGI: > 100 µM
U251 CNS
  TGI: > 100 µM
HCT-15 colon
  TGI: > 100 µM
UO-31 renal
  TGI: > 100 µM
MOLT-4 leukemia
  TGI: > 100 µM
SK-MEL-2 melanoma
  TGI: > 100 µM
A498 renal
  TGI: > 100 µM
CAKI-1 renal
  TGI: > 100 µM
UACC-257 melanoma
  TGI: > 100 µM
SN12C renal
  TGI: > 100 µM
HCC-2998 colon
  TGI: > 100 µM
OVCAR-4 ovarian
  TGI: > 100 µM
OVCAR-5 ovarian
  TGI: > 100 µM
MALME-3M melanoma
  TGI: > 100 µM
DMS 114 small cell lung
  TGI: > 100 µM
SNB-75 CNS
  TGI: > 100 µM
SF-268 CNS
  TGI: > 100 µM
